system: a variety of test species; assay: Post-emergence herbicidal activity; assay type: in vivo; set-up: key to ABUTH (Abutilon theophrasti) damage score / AMARE (Amaranthus retroflexus) damage score / ALOMY (Alopecurus myosuroides) damage score / ECHCG (Echinochloa crus-galli) damage score / ZEAMX (Zea mays) damage score / SOLNI (Solanum nigrum) damage score: 0 = no damage to plant, 5 = total damage to plant; details: rate 1000 g/ha, evaluated after 13 days
Summary of the method: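 Plants grown for 8 days in pots were sprayed post-emergence with compound in acetone/water (50:50) containing 0.5% Tween 20. They were kept in a glasshouse at 24/16 °C day/night, 14 h light, 65% humidity, watered twice daily. Damage was scored after 13 days (0 none to 5 total).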

Compound | ABUTH (Abutilon theophrasti) damage score | ALOMY (Alopecurus myosuroides) damage score | AMARE (Amaranthus retroflexus) damage score | ECHCG (Echinochloa crus-galli) damage score | SETFA (Setaria faberi) damage score | ZEAMX (Zea mays) damage score
COC1=C(C)C(=O)N(c2cc(C(C)(C)F)c(Cl)nn2)C1O (stereo not drawn) [BD8] | 5 | 4 | 5 | 5 | 5 | 2
COC1=C(C)C(=O)N(c2cc(C(C)(C)C)c(-c3ccc(F)cc3)nn2)C1O (stereo not drawn) [BD9] | 2 | 3 | 5 | 2 | 4 | 1
COC1=C(C)C(=O)N(c2cc(C(C)(C)C)c(OC)nn2)C1O (stereo not drawn) [BD10] | 5 | 5 | 5 | 5 | 5 | 4
COC1=C(C)C(=O)N(c2cc(C)c(Cl)nn2)C1O (stereo not drawn) [BD11] | 4 | 2 | 2 | 1 | 2 | 0
COC1=C(C)C(=O)N(c2cc(C(C)(C)C)c(N3CC(F)(F)C3)nn2)C1O (stereo not drawn) [BD12] | 5 | 4 | 5 | 5 | 5 | 2
COC1=C(C)C(=O)N(c2ccc(C(=O)NC(C)(C)C)nn2)C1O (stereo not drawn) [BD13] | 5 | 5 | 5 | 5 | 5 | 4
COC1=C(C)C(=O)N(c2cc(C(C)(C)C)c(-c3cccc(C#N)c3)nn2)C1O (stereo not drawn) [BD14] | 4 | 4 | 5 | 3 | 4 | 1
CC1=C(Cl)C(O)N(c2cc(C(C)(C)C)ncn2)C1=O (stereo not drawn) [CA1] | 1 | 1 | 3 | 1 | 2 | 1
CC1=C(Cl)C(O)N(c2cc(C(F)(F)F)ncn2)C1=O (stereo not drawn) [CA2] | 0 | 1 | 0 | 0 | 0 | 0
CCC1=C(Cl)C(O)N(c2cc(C(C)(C)C#N)ncn2)C1=O (stereo not drawn) [CA3] | 1 | 0 | 1 | 0 | 0 | 0
